Molecules are shown by their SMILES.

For this test, the target named is jack bean urease (Canavalia ensiformis, UniProt P07374). Nature of the test: colorimetric urease inhibition assay (phenol/hypochlorite ammonia detection, […] nm). It counts as biochemical.
Sequence of jack bean urease (P07374 whole entry, looked up): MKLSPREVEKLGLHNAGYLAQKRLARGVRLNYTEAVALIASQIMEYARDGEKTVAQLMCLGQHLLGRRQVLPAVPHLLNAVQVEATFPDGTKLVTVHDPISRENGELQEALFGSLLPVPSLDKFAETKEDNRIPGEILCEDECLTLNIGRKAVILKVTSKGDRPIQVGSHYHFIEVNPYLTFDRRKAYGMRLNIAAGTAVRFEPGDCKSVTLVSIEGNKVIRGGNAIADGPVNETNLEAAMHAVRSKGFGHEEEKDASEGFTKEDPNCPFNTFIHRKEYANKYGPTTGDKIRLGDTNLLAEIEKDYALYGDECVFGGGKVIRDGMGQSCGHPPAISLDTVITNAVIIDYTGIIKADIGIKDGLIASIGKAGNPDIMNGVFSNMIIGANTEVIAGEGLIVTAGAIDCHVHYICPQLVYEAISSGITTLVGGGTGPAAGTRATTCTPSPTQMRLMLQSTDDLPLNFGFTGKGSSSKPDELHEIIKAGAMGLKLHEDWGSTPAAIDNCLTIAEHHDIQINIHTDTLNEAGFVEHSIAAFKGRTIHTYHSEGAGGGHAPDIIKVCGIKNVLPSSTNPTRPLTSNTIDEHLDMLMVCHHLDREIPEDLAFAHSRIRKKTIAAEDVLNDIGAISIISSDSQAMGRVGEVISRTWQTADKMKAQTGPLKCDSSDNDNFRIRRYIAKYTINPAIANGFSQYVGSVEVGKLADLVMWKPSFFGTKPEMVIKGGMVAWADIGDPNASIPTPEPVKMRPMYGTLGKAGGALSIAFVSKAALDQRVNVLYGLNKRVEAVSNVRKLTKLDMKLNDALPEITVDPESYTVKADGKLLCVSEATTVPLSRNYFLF

As for `CC(C)=CCOc1c2ccoc2cc2oc(=O)ccc12` [isoimperatorin], the half-inhibitory concentration (IC50) (usually the midpoint of a concentration-inhibition curve) is 36.4 µM.
As for `NC(N)=S` [thiourea], half-maximal inhibition (IC50) was put at 33.6 µM.

The values above are taken from paper PMC6130598, “Isolation, characterization, and in silico, in vitro and in vivo antiulcer studies of isoimperatorin crystallized from Ostericum koreanum” (Pharmaceutical Biology, 2016).
